No end group written: not given here.
Tests used:
[1] = in vivo; conditions: sheep, iv
Experimental: In this set of experiments, four normal healthy sheep were infused with human BNPsp(17-26) at 100-1000 ug/kg·min−1 to document any effects upon normal blood pressure, heart rate or renal function. This experiment was carried out to determine achieved circulating levels of BNPsp(17-26) in response to the dose given and to document any significant effects upon haemodynamic, renal or hormonal indices.

[2] = test system: normal, healthy sheep; conditions: in vivo
Description: Such a response is indicative of a well tolerated agent. […] This is a favourable profile in normal health.

[3] = test system: isolated rat heart; assay: Modified BNPsp peptides, preconditioning in isolated rat heart (Example 6: 40 min global ischemia, 90 min reperfusion); conditions: preconditioned 30 minutes with 0.3 nmol/L; n=3
Experimental: This set of experiments assessed modified BNPsp(17-26) peptides. This experiment repeated the preconditioning work outlined in the isolated rat heart model Examples, but with C-terminal ablated and an N-terminal extended version of BNPsp(17-26). Hearts were preconditioned with 30 minute doses of 0.3 nmol/L BNPsp(16-26) and BNPsp(17-24) prior to 40 minutes of global ischemia and 90 minutes reperfusion. Cardiac contractile and perfusion pressure indices were recorded.

| Sequence | half-life [1] [min] | haemodynamics, renal function or circulating biomarkers [2] | haemodynamic protective profile (developed pressure) [3] |
| --- | --- | --- | --- |
| LHLAFLGGRS [BNPsp(17-26), LHLAFLGGRS] | < 1 | no detectable changes | – |
| LHLAFLGG (listed as Homo sapiens) [BNPsp(17-24), modified peptide with two C-terminal amino acids removed] | – | – | protective effect |
